In patent US8785459B2, “Quinazoline compounds as kinase inhibitors” (Development Center for Biotechnology, priority 2011, dated 2014):

How the values were obtained:
Format in all cases: biochemical
C-Raf = C-Raf (Homo sapiens (Human), UniProt P04049); test: Raf kinase assay (C-Raf), [33P] incorporation into MEK1(K97R)
Protocol: (§1) A. Raf Kinase Assays (B-Raf, B-raf (V600E), and C-Raf)
(§2) Inhibition of kinase activity by test compound disclosed herein was estimated by quantifying the amount of [^33P] incorporation of substrate in the presence of test compound. Standard assay conditions were 2 ng of recombinant C-Raf or 5 ng of recombinant B-Raf or 5 ng of recombinant B-Raf (V600E) kinase (Upstate Biotechnology) with 500 ng MEK1(K97R) in assay buffer {8 μM ATP, 0.5 μCi [^33P]ATP (specific activity 3000 Ci/mmol, PerkinElmer), 50 mM Tris/HCl (pH7.5), and 1 mM EGTA, 1 mM Na3VO4, 1% 2-mercaptoethanol, 0.1% Brij 35, and 0.2 mg/ml BSA} at a final volume of 25 μL. Reactions were incubated at 30° C. for 30 min and stopped by adding 3% phosphoric acid, harvested onto a 96-well GF/B UniFilter (PerkinElmer) using a unifilter harvester (PerkinElmer), and counted with a TopCount microplate scintillation counter (PerkinElmer). The IC50 values of inhibitors were determined after carrying out assays at 3-fold serially diluted concentrations of each compound in duplication. The results were analyzed using linear regression software (GraphPad Prism 4; GraphPad Software Inc.). Inhibition of B-Raf, B-raf (V600E), and C-Raf kinases by various compounds listed in Table 1 are summarized and shown in Table 3 below. IC50 value is defined as the concentration of the test compound which achieves a half-maximal inhibition of the kinase activity.

B-Raf = B-Raf (Homo sapiens (Human), UniProt P15056); test: Raf kinase assay (B-Raf), [33P] incorporation into MEK1(K97R); settings: for inhibition at 1 µM: 1.0 μM compound, read-out: B-Raf inhibition at 1.0 μM
Protocol: as §1, §2

B-Raf (V600E) = B-Raf (V600E) (Homo sapiens (Human), UniProt P15056, V600E); test: Raf kinase assay (B-Raf (V600E)), [33P] incorporation into MEK1(K97R)
Protocol: as §1, §2

Sequence of B-Raf (V600E) (P15056 whole entry V600E): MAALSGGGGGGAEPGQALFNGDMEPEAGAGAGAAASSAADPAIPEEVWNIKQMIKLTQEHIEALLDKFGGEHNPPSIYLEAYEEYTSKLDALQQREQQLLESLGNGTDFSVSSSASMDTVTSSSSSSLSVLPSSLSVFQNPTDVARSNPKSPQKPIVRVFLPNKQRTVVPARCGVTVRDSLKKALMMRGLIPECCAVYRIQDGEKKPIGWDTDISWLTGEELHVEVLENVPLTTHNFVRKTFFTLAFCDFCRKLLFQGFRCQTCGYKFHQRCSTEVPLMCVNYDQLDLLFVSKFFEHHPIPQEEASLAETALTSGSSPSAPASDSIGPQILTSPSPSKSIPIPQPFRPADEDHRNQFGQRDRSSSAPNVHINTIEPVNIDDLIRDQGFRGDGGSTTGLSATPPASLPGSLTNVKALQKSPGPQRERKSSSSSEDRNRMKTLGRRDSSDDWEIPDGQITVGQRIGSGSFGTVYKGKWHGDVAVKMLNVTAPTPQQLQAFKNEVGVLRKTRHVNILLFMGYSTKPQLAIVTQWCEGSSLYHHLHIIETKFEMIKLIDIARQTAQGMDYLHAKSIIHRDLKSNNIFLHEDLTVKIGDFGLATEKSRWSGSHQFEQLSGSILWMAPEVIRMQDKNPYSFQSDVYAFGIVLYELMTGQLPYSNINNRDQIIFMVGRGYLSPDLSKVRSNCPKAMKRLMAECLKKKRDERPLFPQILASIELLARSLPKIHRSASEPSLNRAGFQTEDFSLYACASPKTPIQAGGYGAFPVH
Sequence of C-Raf (P04049 whole entry): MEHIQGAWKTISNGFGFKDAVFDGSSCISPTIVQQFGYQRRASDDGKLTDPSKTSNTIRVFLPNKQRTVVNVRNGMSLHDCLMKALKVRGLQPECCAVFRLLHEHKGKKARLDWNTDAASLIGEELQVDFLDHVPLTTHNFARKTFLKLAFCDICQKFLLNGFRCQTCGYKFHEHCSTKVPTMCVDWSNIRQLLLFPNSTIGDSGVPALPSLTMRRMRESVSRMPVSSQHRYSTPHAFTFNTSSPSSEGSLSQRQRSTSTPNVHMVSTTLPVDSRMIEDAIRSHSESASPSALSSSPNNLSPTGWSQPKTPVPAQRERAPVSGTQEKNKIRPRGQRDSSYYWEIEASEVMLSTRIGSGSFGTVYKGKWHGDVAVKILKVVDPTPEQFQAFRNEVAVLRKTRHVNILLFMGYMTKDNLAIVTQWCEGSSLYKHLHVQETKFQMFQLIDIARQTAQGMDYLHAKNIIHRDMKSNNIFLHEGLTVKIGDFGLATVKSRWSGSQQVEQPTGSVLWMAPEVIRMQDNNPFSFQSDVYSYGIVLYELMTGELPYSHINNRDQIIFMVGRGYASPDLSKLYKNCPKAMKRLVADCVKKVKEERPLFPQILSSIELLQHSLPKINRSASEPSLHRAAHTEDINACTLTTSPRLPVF
Sequence of B-Raf (P15056 whole entry): as the sequence (P15056 whole entry V600E) above, with E600V counted along it

SMILES | IC50 (C-Raf) [nM] | IC50 (B-Raf) [nM] | inhibition at 1 µM (B-Raf) [%] | IC50 (B-Raf (V600E)) [nM]
O=[N+]([O-])c1cccc(-c2ccc3ncnc(Nc4cccc5[nH]ncc45)c3c2)c1 [Compound 92, N-(1H-indazol-4-yl)-6-(3-nitrophenyl)quinazolin-4-amine] | 1610 | 428 | 66.3 | 535
Oc1cccc(-c2ccc3ncnc(Nc4cccc5[nH]ncc45)c3c2)c1 [Compound 143, 3-(4-(1H-indazol-4-ylamino)quinazolin-6-yl)phenol] | 1960 | 227 | 75.4 | 357
COc1cc(-c2ccc3ncnc(Nc4cc(NS(C)(=O)=O)ccc4F)c3c2)ccc1O [Compound 129, N-(4-fluoro-3-(6-(4-hydroxy-3-methoxyphenyl)quinazolin-4-ylamino)phenyl)methanesulfonamide] | 1060 | 240 | 77.5 | 270
COc1ccc(Nc2ncnc3ccc(-c4ccc(O)c(OC)c4)cc23)cc1O [Compound 25, 4-(4-(3-hydroxy-4-methoxyphenylamino)quinazolin-6-yl)-2-methoxyphenol] | 1560 | 1110 | 54.9 | 842
Oc1ccc(-c2ccc3ncnc(Nc4ccccc4)c3c2)cc1 [Compound 4, 4-(4-(phenylamino)quinazolin-6-yl)phenol] | 9460 | 3990 |  | 4870
COc1cc(-c2ccc3ncnc(Nc4ccc5[nH]nnc5c4)c3c2)ccc1O [Compound 66, 4-(4-(1H-benzo[d][1,2,3]triazol-5-ylamino)quinazolin-6-yl)-2-methoxyphenol] | 973 | 1010 | 59.3 | 933
Nc1ccc(-c2ccc3ncnc(Nc4cccc5[nH]ncc45)c3c2)cc1 [Compound 69, 6-(4-aminophenyl)-N-(1H-indazol-4-yl)quinazolin-4-amine] | 957 | 260 | 75 | 342
N#Cc1ccc(-c2ccc3ncnc(Nc4cccc5[nH]ncc45)c3c2)cc1 [Compound 88, 4-(4-(1H-indazol-4-ylamino)quinazolin-6-yl)benzonitrile] | 630 | 249 | 77.4 | 299
COc1cc(-c2ccc3ncnc(Nc4ccccc4O)c3c2)ccc1O [Compound 23, 4-(4-(2-hydroxyphenylamino)quinazolin-6-yl)-2-methoxyphenol] | 3090 | 669 | 62.6 | 377
CC(=O)Nc1ccc(-c2ccc3ncnc(Nc4cccc5[nH]ncc45)c3c2)cc1 [Compound 71, N-(4-(4-(1H-indazol-4-ylamino)quinazolin-6-yl)phenyl)acetamide] | 935 | 373 | 77.2 | 393
COc1cc(-c2ccc3ncnc(Nc4ccc5cn[nH]c5c4)c3c2)ccc1O [Compound 39, 4-(4-(1H-indazol-6-ylamino)quinazolin-6-yl)-2-methoxyphenol] | 3280 | 1030 | 51.6 | 1440
COc1cc(-c2ccc3ncnc(Nc4ccc(F)cc4F)c3c2)ccc1O [Compound 20, 4-(4-(2,4-difluorophenylamino)quinazolin-6-yl)-2-methoxyphenol] | 882 | 594 | 55.3 | 471
CS(=O)(=O)c1ccc(-c2ccc3ncnc(Nc4cccc5[nH]ncc45)c3c2)cc1 [Compound 110, N-(1H-indazol-4-yl)-6-(4-(methylsulfonyl)phenyl)quinazolin-4-amine] | 650 | 248 | 81.8 | 273
COc1cccc(-c2ccc3ncnc(Nc4ccccc4)c3c2)c1 [Compound 3, 6-(3-methoxyphenyl)-N-phenylquinazolin-4-amine] | > 10000 | 3290 |  | 3390
COc1cccc(-c2ccc3ncnc(Nc4cccc5[nH]ncc45)c3c2)c1 [Compound 144, N-(1H-indazol-4-yl)-6-(3-methoxyphenyl)quinazolin-4-amine] | 3900 | 309 | 62.6 | 472
COc1cc(-c2ccc3ncnc(Nc4cccc(N)c4)c3c2)ccc1O [Compound 37, 4-(4-(3-aminophenylamino)quinazolin-6-yl)-2-methoxyphenol] | 1310 | 573 | 65.8 | 849

Continued by falling IC50 (C-Raf), values first:

IC50 (C-Raf) [nM] | IC50 (B-Raf) [nM] | inhibition at 1 µM (B-Raf) [%] | IC50 (B-Raf (V600E)) [nM] | SMILES
8390 | 888 | 53.5 | 1090 | COc1cc(-c2ccc3ncnc(Nc4cccc5[nH]c(=O)[nH]c45)c3c2)ccc1O [Compound 127, 4-(6-(4-hydroxy-3-methoxyphenyl)quinazolin-4-ylamino)-1H-benzo[d]imidazol-2(3H)-one]
6990 | 256 | 76.3 | 675 | COc1cc(-c2ccc3ncnc(Nc4cccc([N+](=O)[O-])c4)c3c2)ccc1O [Compound 36, 2-methoxy-4-(4-(3-nitrophenylamino)quinazolin-6-yl)phenol]
3910 | 358 | 61.1 | 451 | COc1cc(-c2ccc3ncnc(Nc4cccc5c4cnn5C)c3c2)ccc1O [Compound 99, 2-methoxy-4-(4-(1-methyl-1H-indazol-4-ylamino)quinazolin-6-yl)phenol]
1440 | 543 | 67.1 | 633 | COc1cc(-c2ccc3ncnc(Nc4ccccc4F)c3c2)ccc1O [Compound 119, 4-(4-(2-fluorophenylamino)quinazolin-6-yl)-2-methoxyphenol]
1270 | 668 | 58 | 702 | COc1cc(-c2ccc3ncnc(Nc4cccc5[nH]nnc45)c3c2)ccc1O [Compound 82, 4-(4-(1H-benzo[d][1,2,3]triazol-4-ylamino)quinazolin-6-yl)-2-methoxyphenol]
1060 | 177 | 85.7 | 212 | COc1cc(-c2ccc3ncnc(Nc4ccc(C)c(O)c4)c3c2)ccc1O [Compound 29, 4-(4-(3-hydroxy-4-methylphenylamino)quinazolin-6-yl)-2-methoxyphenol]
919 | 287 | 77.2 | 289 | Clc1ccc(-c2ccc3ncnc(Nc4cccc5[nH]ncc45)c3c2)cc1 [Compound 80, 6-(4-chlorophenyl)-N-(1H-indazol-4-yl)quinazolin-4-amine]
869 | 205 | 80.4 | 259 | COc1ccc(-c2ccc3ncnc(Nc4cccc5[nH]ncc45)c3c2)cc1OC [Compound 89, 6-(3,4-dimethoxyphenyl)-N-(1H-indazol-4-yl)quinazolin-4-amine]
584 | 230 | 68.9 | 359 | Oc1cccc(-c2ccc3nccc(Nc4cccc5[nH]ncc45)c3c2)c1 [Compound 148, 3-(4-(1H-indazol-4-ylamino)quinolin-6-yl)phenol]
